Measured values as given in ChEMBL document CHEMBL5230090, “Recent progress in Keap1-Nrf2 protein-protein interaction inhibitors” (Eur J Med Chem, 2020).
Where “and” joins values, the source holds several entries; their conditions need not be identical. Identical values can stand only once. Starred links: 1 amine or outer side, 2 acyl side, 3 side chain; linkers in the order of their positions; H or OH if unused. Positions of bridges follow the written chain, without caps; N, C: chain ends. Non-standard residues stand in square brackets, D forms with d. Residues, ends and D or L forms follow the SMILES beside them. Chains are numbered I, II in the order given. X1 = NC(=O)[C@H](CCCCNC(=O)COCCOCCN[*:1])N[*:2]; 2Nal = N[C@@H](Cc1ccc2ccccc2c1)C(=O)O; CH2CH2 = C(C[*:2])[*:1]

Experiments:
[1] = target: T1, Keap1/Nrf2 (Homo sapiens, UniProt Q14145)
T1 sequence (Q16236 whole entry): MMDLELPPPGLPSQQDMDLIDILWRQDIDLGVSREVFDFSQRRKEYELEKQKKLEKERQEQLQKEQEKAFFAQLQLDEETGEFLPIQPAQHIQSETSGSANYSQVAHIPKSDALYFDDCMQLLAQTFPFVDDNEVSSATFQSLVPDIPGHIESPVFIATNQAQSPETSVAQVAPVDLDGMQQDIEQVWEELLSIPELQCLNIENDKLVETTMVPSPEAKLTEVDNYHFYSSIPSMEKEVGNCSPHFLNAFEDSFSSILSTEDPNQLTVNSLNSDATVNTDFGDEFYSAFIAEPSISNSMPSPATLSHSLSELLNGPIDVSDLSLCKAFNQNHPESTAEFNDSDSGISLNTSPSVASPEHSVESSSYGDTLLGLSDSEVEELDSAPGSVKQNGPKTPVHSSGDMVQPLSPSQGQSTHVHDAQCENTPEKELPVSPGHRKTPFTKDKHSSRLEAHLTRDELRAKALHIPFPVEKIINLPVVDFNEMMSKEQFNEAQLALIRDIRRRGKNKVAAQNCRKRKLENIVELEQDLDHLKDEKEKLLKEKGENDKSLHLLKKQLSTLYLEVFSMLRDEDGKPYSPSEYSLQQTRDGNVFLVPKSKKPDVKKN
T1 sequence (Q14145 whole entry): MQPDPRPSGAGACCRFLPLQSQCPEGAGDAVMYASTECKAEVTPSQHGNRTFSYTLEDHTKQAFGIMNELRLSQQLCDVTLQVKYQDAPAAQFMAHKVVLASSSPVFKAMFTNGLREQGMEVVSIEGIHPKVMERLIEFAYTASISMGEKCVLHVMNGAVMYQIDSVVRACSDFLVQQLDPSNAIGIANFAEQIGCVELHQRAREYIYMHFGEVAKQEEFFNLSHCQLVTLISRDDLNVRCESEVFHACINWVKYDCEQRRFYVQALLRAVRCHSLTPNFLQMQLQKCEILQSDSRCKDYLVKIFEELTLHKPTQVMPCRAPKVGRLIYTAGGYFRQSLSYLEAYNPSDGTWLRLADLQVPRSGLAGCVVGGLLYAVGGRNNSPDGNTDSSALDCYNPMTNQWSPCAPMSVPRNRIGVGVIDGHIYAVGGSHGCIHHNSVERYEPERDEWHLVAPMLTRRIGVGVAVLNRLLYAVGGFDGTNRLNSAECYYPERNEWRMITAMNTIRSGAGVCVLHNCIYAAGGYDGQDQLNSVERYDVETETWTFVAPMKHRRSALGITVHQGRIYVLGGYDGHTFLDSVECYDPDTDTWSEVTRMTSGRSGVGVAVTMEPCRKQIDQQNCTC

[2] = target: T2, Kelch-like ECH-associated protein 1 (Homo sapiens, UniProt Q14145)
T2 sequence (Q14145 whole entry): as above

[3] = target: T2, Kelch-like ECH-associated protein 1; test: Binding affinity to human KEAP1 incubated for 1 hr by absorbance based analysis
[4] = target: T2, Kelch-like ECH-associated protein 1; test: Binding affinity to human KEAP1 by fluorescence polarization assay
[5] = target: T1, Keap1/Nrf2; test: Inhibition of human Keap1-Nrf2 protein-protein interaction expressed in U2OS cells incubated for 6 hrs by cellular Keap1-Nrf2 functional assay; type: cell-based
[6] = target: T1, Keap1/Nrf2; test: Inhibition of human Keap1-Nrf2 protein-protein interaction by ELISA method; type: protein assay
[7] = target: T2, Kelch-like ECH-associated protein 1; test: Binding affinity to human KEAP1 Kelch domain by SPR direct binding assay
[8] = target: T2, Kelch-like ECH-associated protein 1; test: Binding affinity to human KEAP1 by fluorescence anisotropy assay
[9] = target: T1, Keap1/Nrf2; remark: listed apart in the source
[10] = target: T2, Kelch-like ECH-associated protein 1; remark: listed apart in the source
[11] = target: T2, Kelch-like ECH-associated protein 1; test: Binding affinity to human KEAP1 Kelch domain (residues Ala321-Thr609) expressed in Escherichia coli BL21(DE3) cells assessed as dissociation constant by isothermal titration calorimetric analysis
[12] = target: T2, Kelch-like ECH-associated protein 1; test: Binding affinity to human KEAP1 Kelch domain (residues Ala321-Thr609) expressed in Escherichia coli BL21(DE3) cells assessed as dissociation constant by SPR direct binding assay

O=C(O)c1ccc(NC2=C/C(=N/S(=O)(=O)c3ccc4ccccc4c3)c3ccccc3C2=O)cc1
IC50 [1]: 2700 nM | Kd [2]: 158 nM

C[C@@H]1NC(=O)[C@H](CC(=O)O)NC(=O)[C@@H](N)Cc2ccc(cc2)OCCSC[C@@H](C(=O)O)NC(=O)[C@H](CCC(=O)O)NC(=O)CNC(=O)[C@H]([C@@H](C)O)NC(=O)[C@H](CCC(=O)O)NC1=O (H-YDAETGEC-OH; linker 1-8 via CH2CH2)
Kd [3]: 40 nM

CC[C@H](C)[C@@H]1NC(=O)[C@H](CC(=O)O)NC(=O)[C@H](CCC(N)=O)NC(=O)[C@H](CCCNC(=N)N)NC(=O)[C@H](Cc2c[nH]c3ccccc23)NC(=O)[C@H](CC(C)C)NC(=O)[C@H]([C@@H](C)CC)NC(=O)[C@H](CC(=O)O)NC(=O)[C@@H](NC(=O)[C@H](CC(C)C)NC(=O)[C@H](CC(=O)O)NC(=O)[C@@H](N)CCSC)CSSC[C@@H](C(=O)N[C@@H](Cc2ccccc2)C(=O)N[C@@H](CO)C(=O)O)NC(=O)[C@H](Cc2ccccc2)NC(=O)[C@H](C(C)C)NC(=O)[C@H](CCC(=O)O)NC(=O)[C@H](CCCNC(=N)N)NC(=O)[C@H](CO)NC(=O)[C@H](C(C)C)NC(=O)CNC(=O)[C@H](CC(C)C)NC(=O)[C@H](CC(=O)O)NC1=O (H-MDLCDILWRQDIDLGVSREVFCFS-OH; disulfide 4-22)
Kd [4]: 51 nM

C[C@H](Oc1cccc(-c2cccc(-n3ncc(C(=O)O)c3[C@@H]3C[C@H]3c3cn(C)nn3)c2)c1)C1CCCCC1
IC50 [1]: 10 nM

CC1=NN(c2ccccc2)C(=O)/C1=C/c1ccc(OS(=O)(=O)c2ccccc2[N+](=O)[O-])cc1
EC50 [5]: 1460 nM

CC(=O)N1CCN(c2ccc(OCC3COC(Cn4ccnc4)(c4ccc(Cl)cc4Cl)O3)cc2)CC1 (stereo not drawn) [KETOCONAZOLE]
IC50 [6]: 1670 nM

O=c1c2ccccc2nc2c3[nH]c4ccccc4c3ccn12
Kd [7]: 19600 nM

COC1=C(NCC(=O)O)CC(O)(CO)C/C1=N\C(CO)C(=O)O (stereo not drawn)
IC50 [1]: 100000 nM and 185000 nM

NCCCC[C@H](NC(=O)[C@H](CCCCN)NC(=O)[C@@H](N)CC(=O)O)C(=O)O (H-Asp-Lys-Lys-OH)
Kd [4]: 120 nM

CCc1ccc(S(=O)(=O)N(CC(=O)O)c2cc(Sc3nc[nH]n3)c(O)c3ccccc23)cc1
Kd [8]: 1140 nM | Kd [2]: 453 nM

N[C@@H](CC(=O)O)C(=O)N[C@@H](CC(=O)O)C(=O)N[C@@H](Cc1c[nH]c2ccccc12)C(=O)O (H-Asp-Asp-Trp-OH)
Kd [4]: 100 nM

CC[C@H](C)[C@@H]1NC(=O)[C@H](CC(=O)O)NC(=O)[C@@H](N)Cc2ccc(cc2)OCCSC[C@@H](C(=O)O)NC(=O)[C@H](CCC(=O)O)NC(=O)CNC(=O)[C@H]([C@@H](C)O)NC(=O)[C@H](CCC(=O)O)NC1=O (H-YDIETGEC-OH; linker 1-8 via CH2CH2)
Kd [3]: 43 nM

COc1ccc(S(=O)(=O)N(Cc2nnn[nH]2)c2ccc(N(Cc3nnn[nH]3)S(=O)(=O)c3ccc(OC)cc3)c3ccccc23)cc1
IC50 [1]: 14.4 nM | IC50 [9]: 15.8 nM | Kd [10]: 39.8 nM

CCCCC1CCCN1C(=O)c1cccc(-c2cccc(-n3ncc(C(=O)O)c3C3CC3)c2)c1 (stereo not drawn)
IC50 [1]: 63 nM

N[C@@H](CCC(=O)O)C(=O)N[C@@H](Cc1c[nH]c2ccccc12)C(=O)N[C@@H](Cc1c[nH]c2ccccc12)C(=O)N[C@@H](Cc1c[nH]c2ccccc12)C(=O)O (H-EWWW-OH)
Kd [11]: 10000 nM | Kd [12]: 77000 nM

CC(C)C[C@@H]1NC(=O)[C@H](Cc2ccccc2)NC(=O)[C@H](CCC(=O)O)NC(=O)CNC(=O)[C@H]([C@@H](C)O)NC(=O)[C@H](CCC(=O)O)NC(=O)[C@@H]2CCCN2C(=O)[C@H](CC(=O)O)NC(=O)[C@H](CC(C)C)NC(=O)[C@H](CCC(=O)NCCOCCOCC(=O)NCCCC[C@H](NC(=O)CC[C@@H]2NC(=O)[C@H](CCCNC(=N)N)NC(=O)[C@H](CCCNC(=N)N)NC(=O)[C@H](CCCNC(=N)N)NC(=O)[C@H](CCCNC(=N)N)NC(=O)[C@H](Cc3ccc4ccccc4c3)NC(=O)[C@H](Cc3ccccc3)NC2=O)C(N)=O)NC(=O)CNC1=O (I: cyclo(DPETGEFLGEL) / II: cyclo([2Nal]RRRREF); linker I:10-II:6 via X1)
Kd [4]: 48 nM | IC50 [1]: 153 nM

COC1=C(NCC(=O)O)CC(O)(CO)C/C1=N\C(C(=O)O)C(C)O (stereo not drawn)
IC50 [1]: 100000 nM and 185000 nM
